Source: ChEMBL document CHEMBL2069232, “Novel structural insights for imidoselenocarbamates with antitumoral activity related to their ability to generate methylselenol” (Bioorg Med Chem, 2012)
The source made the active and inactive calls. No cut-off for these calls is given here. Numbered stars: 1 amine (or outer) side, 2 acyl side, 3 side chain; on linkers, the order of the positions; unused ones are H or OH. Bridge positions count the residues as written; N and C are the ends. Square brackets hold non-standard residues; d marks the D form. Peptide text beside a SMILES is read from it. I, II: the chains in the order shown. Actinocin(1to9) = Cc1c2oc3c(C)ccc(C(=O)[*:2])c3nc-2c(C(=O)[*:1])c(N)c1=O; NMeV = CN[C@H](C(=O)O)C(C)C; Sar = CNCC(=O)O

Experiments:
[1] = test system: NCI-H157; experiment: Induction of apoptosis in human NCI-H157 cells at 10 uM incubated for 5 hrs in serum-free medium by annexin V/propidium iodide staining by flow cytometry; type: functional, cell-based
[2] = Induction of methylselenol release in pH 8.0 phosphate buffer containing 100 mM Na2PO4, 1 mM EDTA and 100 uM DTNB; type: physicochemical
[3] = Induction of methylselenol release in phenol-red free RPMI 1640 medium containing 100 uM DTNB; type: physicochemical
[4] = test system: NCI-H157; experiment: Induction of apoptosis in human NCI-H157 cells assessed as necrotic cell level at 10 uM incubated for 5 hrs in serum-free medium by annexin V/propidium iodide staining by flow cytometry; type: functional
[5] = test system: NCI-H157; experiment: Induction of apoptosis in human NCI-H157 cells assessed as live cell level at 10 uM incubated for 5 hrs in serum-free medium by annexin V/propidium iodide staining by flow cytometry; type: functional, cell-based
[6] = test system: NCI-H157; experiment: Induction of apoptosis in human NCI-H157 cells assessed as apoptotic cell level at 10 uM incubated for 5 hrs in serum-free medium by annexin V/propidium iodide staining by flow cytometry; type: functional
[7] = test system: NCI-H157; experiment: Induction of apoptosis in human NCI-H157 cells assessed as damaged cell level at 10 uM incubated for 5 hrs in serum-free medium by annexin V/propidium iodide staining by flow cytometry; type: functional

| Compound | Activity [1] | t1/2 [2] | t1/2 [3] | Activity [4] | Activity [5] | Activity [6] | Activity [7] |
| --- | --- | --- | --- | --- | --- | --- | --- |
| C[Se]/C(=N\C(=O)c1ccc(C(F)(F)F)cc1)NC(=O)c1ccc(C(F)(F)F)cc1 | inactive |  |  |  |  |  |  |
| C[Se]/C(=N\C(=O)c1ccccc1)NC(=O)c1ccccc1 | inactive |  |  |  |  |  |  |
| CS/C(=N/C(=O)c1cccnc1)NC(=O)c1cccnc1 |  | 1333 h | 24 h |  |  |  |  |
| CS/C(=N/C(=O)c1cccnc1Cl)NC(=O)c1cccnc1Cl |  | 917 h | 31 h |  |  |  |  |
| Cc1c2oc3c(C)ccc(C(=O)N[C@@H]4C(=O)N[C@H](C(C)C)C(=O)N5CCC[C@H]5C(=O)N(C)CC(=O)N(C)[C@@H](C(C)C)C(=O)O[C@@H]4C)c3nc-2c(C(=O)N[C@@H]2C(=O)N[C@H](C(C)C)C(=O)N3CCC[C@H]3C(=O)N(C)CC(=O)N(C)[C@@H](C(C)C)C(=O)O[C@@H]2C)c(N)c1=O [DACTINOMYCIN] (I: T[dV]P[Sar][NMeV] / II: T[dV]P[Sar][NMeV]; ester I:1-I:C, II:1-II:C; linker I:N-II:N via Actinocin(1to9)) |  |  |  | 3% | Active | 9% | 23% |
| C[Se]/C(=N/C(=O)c1cccnc1)NC(=O)c1cccnc1 | Active | 26 h | 2.9 h | 5% | Active | 11% | 28% |
| COc1ccc(C(=O)/N=C(\NC(=O)c2ccc(OC)cc2OC)[Se]C)c(OC)c1 | inactive |  |  |  |  |  |  |
| C[Se]/C(=N/C(=O)c1cccnc1Cl)NC(=O)c1cccnc1Cl | Active | 40 h | 4.7 h |  |  |  |  |
| C[Se]/C(=N\C(=O)c1ccc(C)cc1)NC(=O)c1ccc(C)cc1 | inactive |  |  |  |  |  |  |
| C[Se]/C(=N/C(C)=O)NC(C)=O | Active | 9.2 h | 0.82 h |  |  |  |  |
